Converted amounts (≈) assume the structure as drawn.
Experiments:
Assay in all cases: ≥ marks a high value that may be exact or a test limit, other limits are often not marked, values filed in µg/mL are converted to µM
[1] = system: Staphylococcus aureus ATCC 25923
[2] = system: Pseudomonas aeruginosa ATCC 47085
[3] = system: Candida albicans LM108
[4] = system: Aspergillus flavus LM26
[5] = system: Trichophyton rubrum LM640
[6] = system: Aspergillus flavus LM247
[7] = system: Candida albicans LM106
[8] = system: Candida tropicalis ATCC 13803
[9] = system: Bacillus subtilis ATCC 6633
[10] = system: Escherichia coli ATCC 25922
[11] = system: Candida tropicalis PCM 2681
[12] = system: Pseudomonas aeruginosa ATCC 9027
[13] = system: Candida albicans ATCC 10231
[14] = system: Staphylococcus epidermidis ATCC 14490
[15] = system: Klebsiella pneumoniae ATCC 200603
[16] = system: Cryptococcus neoformans
[17] = system: Streptococcus mutans
[18] = system: Escherichia coli ATCC 23716
[19] = system: Escherichia coli
[20] = system: Trichosporon beigelii KCTC 7707
[21] = system: Saccharomyces cerevisiae
[22] = system: Enterococcus faecium ATCC 19434
[23] = system: Candida albicans ATCC 90028
[24] = system: Escherichia coli O157:H7 ATCC 43895
[25] = system: Staphylococcus aureus 1
[26] = system: Pseudomonas putida
[27] = system: Bacillus subtilis SMY
[28] = system: Pseudomonas aeruginosa 1
[29] = system: Pseudomonas aeruginosa
[30] = system: Salmonella typhimurium
[31] = system: Trichophyton rubrum KCTC 6345
[32] = system: Candida albicans
[33] = system: Serratia marcescens
[34] = system: Salmonella typhimurium ATCC 19430
[35] = system: Pseudomonas aeruginosa ATCC 27853
[36] = system: Candida parapsilosis ATCC 22019
[37] = system: Bacillus subtilis
[38] = system: Streptococcus pneumoniae
[39] = system: Escherichia coli MG1655
[40] = system: Escherichia coli JW5831
[41] = system: Escherichia coli JW3441
[42] = system: Escherichia coli DH5alpha
[43] = system: Pseudomonas aeruginosa H188

Compound: CC(C)C[C@H](NC(=O)CN)C(=O)N[C@@H](CC(C)C)C(=O)N[C@@H](CCCN=C(N)N)C(=O)N[C@@H](CCCCN)C(=O)N[C@@H](Cc1c[nH]c2ccccc12)C(=O)NCC(=O)N[C@@H](CCCCN)C(=O)N[C@@H](CCCCN)C(=O)N[C@@H](Cc1c[nH]c2ccccc12)C(=O)N[C@@H](CCCCN)C(=O)N[C@@H](CCC(=O)O)C(=O)N[C@@H](Cc1ccccc1)C(=O)N[C@@H](CC(C)C)C(=O)N[C@@H](CCCN=C(N)N)C(=O)N[C@@H](CCCN=C(N)N)C(=O)N[C@H](C(=O)N[C@@H](Cc1c[nH]c2ccccc12)C(=O)N[C@@H](CCCCN)C(N)=O)C(C)C [GLLRKWGKKWKEFLRRVWK]
- MIC [1]: 12.7 µM (≈ 32 µg/mL)
- MIC [2]: 12.7 µM (≈ 32 µg/mL)

Compound: CC[C@H](C)[C@H](NC(=O)CNC(=O)[C@@H](NC(=O)[C@H](Cc1ccccc1)NC(=O)[C@H](CC(=O)O)NC(=O)[C@H](CCSC)NC(=O)[C@H](CC(=O)O)NC(=O)[C@H](C)N)[C@@H](C)O)C(=O)N[C@@H](C)C(=O)N[C@@H](CCC(=O)O)C(=O)N[C@@H](CO)C(=O)N[C@H](C(=O)N[C@H](C(=O)N[C@@H](CCCCN)C(=O)N[C@@H](CCCCN)C(=O)N[C@H](C(=O)N[C@@H](CCCCN)C(=O)N[C@@H](CCC(=O)O)C(=O)N[C@H](C(=O)N[C@@H](CC(N)=O)C(=O)N[C@@H](C)C(=O)N[C@@H](CCCCN)C(=O)N1CCC[C@H]1C(=O)N1CCC[C@H]1C(=O)N[C@@H](C)C(=O)O)[C@@H](C)O)[C@@H](C)CC)[C@@H](C)CC)[C@@H](C)CC [ADMDFTGIAESIIKKIKETNAKPPA]
- MIC [3]: ≥ 381 µM
- MIC [4]: ≥ 47.6 µM
- MIC [5]: ≥ 381 µM
- MIC [6]: ≥ 47.6 µM
- MIC [7]: ≥ 47.6 µM
- MIC [8]: ≥ 47.6 µM

Compound: NC(=O)CC[C@H](NC(=O)[C@H](CCC(N)=O)NC(=O)[C@H](CCC(=O)O)NC(=O)[C@H](Cc1ccccc1)NC(=O)[C@H](CCC(=O)O)NC(=O)[C@H](Cc1c[nH]c2ccccc12)NC(=O)[C@H](CCC(=O)O)NC(=O)[C@H](Cc1ccccc1)NC(=O)[C@H](CCCN=C(N)N)NC(=O)[C@H](CCC(N)=O)NC(=O)[C@@H](N)CCC(N)=O)C(N)=O [QQRFEWEFEQQ]
- MIC [9]: ≥ 329 µM
- MIC [1]: > 329 µM
- MIC [10]: > 329 µM
- MIC [11]: ≥ 329 µM
- MIC [12]: > 329 µM
- MIC [13]: > 329 µM
- MIC [14]: ≥ 329 µM
- MIC [15]: ≥ 329 µM

Compound: CC(C)C[C@H](NC(=O)CNC(=O)[C@H](C)N)C(=O)N[C@@H](CCC(N)=O)C(=O)N[C@@H](Cc1ccccc1)C(=O)N1CCC[C@H]1C(=O)N[C@H](C(=O)NCC(=O)N[C@@H](CCCN=C(N)N)C(=O)N[C@H](C(=O)N[C@@H](Cc1cnc[nH]1)C(=O)N[C@@H](CCCN=C(N)N)C(=O)N[C@@H](CC(C)C)C(=O)N[C@@H](CC(C)C)C(=O)N[C@@H](CCCN=C(N)N)C(=O)N[C@@H](CCCCN)C(=O)O)C(C)C)C(C)C [AGLQFPVGRVHRLLRK]
- MIC [16]: 4.33 µM (≈ 8 µg/mL)
- MIC [17]: 2.17 µM (≈ 4 µg/mL)
- MIC [18]: ≥ 139 µM
- MIC [19]: 2.17 µM (≈ 4 µg/mL)
- MIC [20]: 12.5 µM (≈ 23.1 µg/mL)
- MIC [21]: 4.33 µM (≈ 8 µg/mL)
- MIC [1]: 25 µM (≈ 46.2 µg/mL)
- MIC [22]: 25 µM (≈ 46.2 µg/mL)
- MIC [23]: 12.5 µM (≈ 23.1 µg/mL)
- MIC [24]: 6.3 µM (≈ 11.6 µg/mL)
- MIC [25]: 12.5 µM (≈ 23.1 µg/mL)
- MIC [26]: 2.17 µM (≈ 4 µg/mL)
- MIC [27]: ≥ 139 µM
- MIC [28]: 6.3 µM (≈ 11.6 µg/mL)
- MIC [29]: 12.5 µM (≈ 23.1 µg/mL)
- MIC [30]: 1.08 µM (≈ 2 µg/mL)
- MIC [31]: 12.5 µM (≈ 23.1 µg/mL)
- MIC [32]: 4.33 µM (≈ 8 µg/mL)
- MIC [33]: 1.08 µM (≈ 2 µg/mL)
- MIC [34]: 6.3 µM (≈ 11.6 µg/mL)
- MIC [35]: 12.5 µM (≈ 23.1 µg/mL)
- MIC [36]: 25 µM (≈ 46.2 µg/mL)
- MIC [37]: 2.17 µM (≈ 4 µg/mL)
- MIC [38]: 2.17 µM (≈ 4 µg/mL)

Compound: CC[C@H](C)[C@H](NC(=O)[C@H](CCCCN)NC(=O)CNC(=O)[C@H](CC(C)C)NC(=O)[C@H](CC(C)C)NC(=O)[C@H](Cc1cnc[nH]1)NC(=O)[C@H](Cc1ccccc1)NC(=O)[C@@H](N)C(C)C)C(=O)N[C@H](C(=O)N[C@@H](Cc1cnc[nH]1)C(=O)N[C@@H](Cc1cnc[nH]1)C(=O)N[C@H](C(=O)NCC(=O)N[C@@H](CC(N)=O)C(=O)N[C@@H](Cc1ccccc1)C(=O)N[C@H](C(=O)N[C@@H](Cc1ccc(O)cc1)C(=O)NCC(=O)N[C@@H](Cc1ccccc1)C(=O)N[C@@H](CO)C(=O)N[C@@H](Cc1cnc[nH]1)C(=O)N[C@H](C(=O)N[C@@H](Cc1ccccc1)C(N)=O)C(C)C)C(C)C)C(C)C)[C@@H](C)CC [VFHLLGKIIHHVGNFVYGFSHVF]
- MIC [39]: 4 µM (≈ 10.7 µg/mL)
- MIC [40]: 4 µM (≈ 10.7 µg/mL)
- MIC [41]: 4 µM (≈ 10.7 µg/mL)

Compound: CC[C@H](C)[C@H](NC(=O)[C@H](C)NC(=O)[C@H](CCCCN)NC(=O)[C@H](CC(C)C)NC(=O)[C@H](C)NC(=O)[C@@H](NC(=O)[C@H](Cc1cnc[nH]1)NC(=O)[C@H](CC(C)C)NC(=O)[C@H](CCC(=O)O)NC(=O)[C@@H](NC(=O)[C@H](CCCCN)NC(=O)[C@H](CCCCN)NC(=O)[C@H](C)NC(=O)[C@H](CO)NC(=O)[C@H](CCCCN)NC(=O)[C@H](Cc1ccccc1)NC(=O)[C@@H](NC(=O)[C@H](CCCCN)NC(=O)[C@H](CC(C)C)NC(=O)[C@H](Cc1ccccc1)NC(=O)[C@H](CO)NC(=O)[C@H](CCCCN)NC(=O)[C@H](Cc1c[nH]c2ccccc12)NC(=O)[C@H](CCCCN)NC(C)=O)[C@@H](C)O)[C@@H](C)O)[C@@H](C)O)C(=O)N[C@@H](CO)C(=O)N[C@@H](CO)C(N)=O [KWKSFLKTFKSAKKTELHTALKAISS]
- MIC [19]: 42 µM (≈ 127 µg/mL)
- MIC [10]: 5.37 µM (≈ 16.2 µg/mL)
- MIC [42]: 21.5 µM (≈ 64.9 µg/mL)
- MIC [35]: 42 µM (≈ 127 µg/mL)
- MIC [43]: 21.5 µM (≈ 64.9 µg/mL)

Source: DBAASP
